Assays:
[1] = biological target: T1, HLA-DR4Dw4 (Homo sapiens, UniProt P01903+P01911, A100K/A169T/F76Y/I96L/K127E/L162R/M171V/N62H/P40V/Q125Y/R42H/S133A/S149N/S66Y/V115G/V209L/W38E); assay: Test A: purified HLA-DR peptide in vitro binding assay; settings: purified HLA-DR4Dw4, biotin-FHA307-320
T1 construct: a cDNA encoding the β chain is cloned into the transfer vector pAcUW1; made in house; host or cells: Sf21 insect cells, double-recombinant baculovirus
Experimental: Test A: Purified HLA-DR peptide in vitro binding assay. […]. At the end of the incubation period 100 μl of the incubate is transferred to Enzyme Linked lmmunoSorbant Assay (ELISA) plates (Nunc) previously coated with an anti-MHC antibody (L243--American Type Culture Collection (ATCC) HB55 --as described in Lampson and Levy (1980) J. Immunol. 125, 293-299) at a concentration of 10 μg/ml for 1 hour at room temperature and blocked thereafter for 1 hour with 1% bovine serum albumin (BSA) in PBS and 0.05% Tween 20. After a further 1 hour period the unbound peptide is washed away and a 1/4,000 dilution of streptavidin peroxidase (Sigma) in PBS with 0.01% of a suitable detergent such as NP40 (Sigma) added for 2 hours at room temperature. After further washing, tetramethylbenzidene (TMB) substrate solution (1 TMB tablet (Sigma) in 10 mIs of 0.1 M citrate/acetate buffer, pH 6.0 with 36 μl urea hydrogen peroxide (UHPO) (Fluka)) is added to each of the plates. The reaction is stopped by adding 2M sulphuric acid (10 μl per well) and the absorbance read at 450 nm to quantify the amount of peptide bound. The inhibitory activity of peptides is obtained by plotting absorbance against concentration.
The purified HLA-DR4Dw4 may be obtained as follows:
(i) Expression of HLA-DR in the Baculovirus System
The expression of recombinant proteins in insect cells from baculovirus vectors is an established procedure to obtain high yields of recombinant protein [Luckow, V A & Summers, M D, 1988, Biotechnology, 6, 47-551]. To enable the expression of the heterodimeric HLA-DR, eg. HLA-DR4Dw4, from a single recombinant baculovirus vector (as opposed to having separate recombinant viruses for the α and β chains and then doing a co-infection), a double-recombinant baculovirus is constructed which carries both the α and β chains.
A cDNA encoding the sequence of the α polypeptide is cloned into the transfer vector pacYM1 [Matsuura, Y; Possee, R D; Overton, H A & Bishop, D H L, 1987, J. Gen. […] The molecular genetic techniques used to construct the recombinant vectors are likewise readily available in the literature and are most fully described by Sambrook, J; Fritsch, E F & Maniatis T, (1989) [Molecular Cloning. […]
To create the double-recombinant baculovirus, a cDNA encoding the β chain is cloned into the transfer vector pAcUW1 [Weyer, U; Knight, S & Possee, R D, 1990, J. Gen. […] Double-recombinant viruses are detected by spotting insect cells, infected with randomly picked viruses from the transfection, onto membranes and reacting them with a monoclonal antibody, e.g. L243, which specifically recognises the HLA-DR heterodimer. Binding of the antibody to Sf21 insect cells is detected using standard flow cytometry techniques, readily available in the literature. […]

[2] = test system: BALB/C mice; assay: Test C: peptide stimulated DTH (delayed type hypersensitivity) in BALB/C mice; assay type: in vivo; settings: DTH to ovalbumin, 3-day osmotic mini-pumps
Experimental: Test C: Peptide stimulated DTH (delayed type hypersensitivity) in BALB/C mice. […] Balbic female mice (18-20g), 5 per group, were immunised sub-cutaneously on the flank with 0.1 ml of an emulsion of ovalbumin (Sigma) (2mg/ml in saline) mixed 1:1 (v/v) with complete Freunds adjurant (Sigma). Seven days later footpad thickness was detemined using a dual caliper micrometer followed by a challenge in one hind footpad with a 30 μl sub-plantar injection of 1% heat-aggregated ovalbumin protein in saline. Twenty-four hours after antigen challenge, footpads were measured and the DTH response calculated as the percentage increase in footpad thickness in the injected footpad compared to contralateral control. Inhibitors were adminstered by 3-day osmotic mini-pumps (Alzet) implanted 24 hours prior to antigen challenge at doses ranging from 10 mg/kg/day to 0.1 μg/kg/day. The degree of inhibition was calculated by substracting the value for swelling of inhibitor treated footpads from that of the vehicle dosed controls, dividing by the control value and multiplying by 100%.

[3] = assay type: physicochemical
Experimental: Degradation of Dettide on in vitro release from an extruded polymer depot
A solution of McIlvaine's citric acid-phosphate buffer solution at pH 7.6 containing 0.02% sodium azide, is filtered through a 0.22 μfilter and stored at 4° C. Approximately 10 mg of extruded polymer depot containing peptide is placed in two small vials and 2 ml of the buffer solution added. The vials are then capped and stored in a water bath at 37° C. for a month. At suitable time points over a month, three 0.6ml aliquots of release medium are removed from each vial and either analysed by HPLC or stored frozen in an HPLC vial at -18° C. prior to analysis by HPLC. 1.8 ml of the buffer solution is added to each vial containing the depot to replace the release medium that has been removed at each time point.
The average amount of intact peptide in the release medium at each time point is determined by HPLC using duplicate sample injections by comparing the area of the peptide peak in the release media with the area of the peptide peak from standard buffer solutions of peptide at known concentrations. The approximate average amount of peptide degradation products in the release media at each time point is determined by HPLC by comparing the area of additional new peaks in the release media with the area of the peptide peak from standard buffer solutions of peptide at known concentrations and assuming the extinction coefficient has not changed. The average cumulative in vitro release profile of intact peptide and total peptide (intact peptide and peptide degradation products) is determined from the amounts of intact peptide and peptide degradation products in the release medium at each time point. Preferred peptides of the present invention show minimal degradation on in vitro release and thus show total peptide degradation products of less than 10% and preferably less than 5% of total peptide after a month of in vitro release into Mcllvaine's buffer solution at pH 7.6 at 37° C.

Substance | concentration showing significant binding to HLA-DR4Dw4 in Test A [1] [µM] | dose at which active in Test C [2] [mg/kg/day] | degradation on release from depot formulation [3]
Phv-Ala-Arg-Ala-IIb-Ala-Arg-Ala-Papa-NH2 [Example 23] | < 0.1 | < 0.1 | minimal degradation on release
Phv-Arg-Ala-Ala-Ala-Val-IIb-Ala-Pip-NH2 [Example 5] | < 0.1 | < 0.1 | minimal degradation on release
Phv-Gap(Me)4 -Ala-Ala-Ala-Thr-IIb-Ala-Papa-NH2 [Example 16] | < 0.1 | < 0.1 | minimal degradation on release
